Data from publication PMC4886219, “Bioengineered kidney tubules efficiently excrete uremic toxins” (Scientific Reports, 2016).
Counter-ions that a name gives are not always drawn. Like-named read-outs stand apart in the source and are kept apart here.

Assays:
[1] = design: method as in Duranton et al.[6]; details: mean plasma levels in ESRD patients; ref Duranton et al.[6]; cited from earlier work
OAT3 = target: T1, OAT3 (Homo sapiens, UniProt Q8TCC7); assay: Fluorescein inhibition assay in ciPTEC-OAT3 flat monolayers
T1 sequence (Q8TCC7 1-542): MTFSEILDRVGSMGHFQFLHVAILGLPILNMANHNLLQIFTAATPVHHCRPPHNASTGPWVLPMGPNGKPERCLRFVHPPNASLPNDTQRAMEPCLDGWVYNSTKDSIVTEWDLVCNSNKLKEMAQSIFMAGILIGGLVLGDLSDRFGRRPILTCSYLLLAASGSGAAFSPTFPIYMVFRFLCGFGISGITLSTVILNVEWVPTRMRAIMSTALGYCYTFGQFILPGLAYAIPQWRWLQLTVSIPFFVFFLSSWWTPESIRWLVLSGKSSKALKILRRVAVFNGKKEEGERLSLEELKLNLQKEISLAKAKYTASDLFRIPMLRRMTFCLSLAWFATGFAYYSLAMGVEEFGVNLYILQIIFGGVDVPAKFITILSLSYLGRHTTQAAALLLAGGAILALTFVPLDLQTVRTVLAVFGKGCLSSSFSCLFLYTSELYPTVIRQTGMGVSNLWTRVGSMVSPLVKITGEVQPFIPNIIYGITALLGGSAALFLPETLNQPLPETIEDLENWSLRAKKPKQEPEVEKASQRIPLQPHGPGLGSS

OAT1 [2] = target: T2, OAT1 (Homo sapiens, UniProt Q4U2R8); assay: Fluorescein inhibition assay in ciPTEC-OAT1 flat monolayers
T2 sequence (Q4U2R8 1-563): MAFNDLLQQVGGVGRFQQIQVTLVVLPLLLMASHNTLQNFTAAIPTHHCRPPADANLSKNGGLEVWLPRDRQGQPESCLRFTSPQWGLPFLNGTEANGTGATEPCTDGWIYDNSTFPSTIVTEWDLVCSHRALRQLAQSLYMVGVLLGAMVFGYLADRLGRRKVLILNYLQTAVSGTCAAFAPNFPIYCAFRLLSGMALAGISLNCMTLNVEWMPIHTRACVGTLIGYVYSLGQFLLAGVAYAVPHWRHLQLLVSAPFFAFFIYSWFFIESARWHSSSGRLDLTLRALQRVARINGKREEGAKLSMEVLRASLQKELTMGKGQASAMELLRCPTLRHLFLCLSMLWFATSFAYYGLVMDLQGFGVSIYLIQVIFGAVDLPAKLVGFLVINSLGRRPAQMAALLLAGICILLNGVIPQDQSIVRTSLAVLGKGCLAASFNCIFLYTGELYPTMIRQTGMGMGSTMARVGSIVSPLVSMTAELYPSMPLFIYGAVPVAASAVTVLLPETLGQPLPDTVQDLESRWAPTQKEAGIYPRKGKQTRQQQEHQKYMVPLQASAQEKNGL

[3] = system: parent ciPTEC models lacking OAT1; assay: MTT cell viability assay in parent ciPTEC lacking OAT1; format: cell-based, human; details: parent ciPTEC lacking OAT1, in presence of efflux pump inhibitors
Procedure: After 4 hours of incubation, the intracellular
Monolayer polarization and transepithelial barrier function
Next, cells were incubated with
The mR NA expression level s of
PCR Master Mix (Applied Biosystems, Branchburg, NJ).

BCRP = system: BCRP; design: method as in earlier work; details: vesicular transport assay; ref 14 (Mutsaers et al.); cited from earlier work
MRP4 = system: MRP4; design: method as in earlier work; details: vesicular transport assay; ref 14 (Mutsaers et al.); cited from earlier work
[4] = system: bioengineered renal tubules (ciPTEC-OAT1 on HFM); assay: Transepithelial transport (clearance) of indoxyl sulfate and kynurenic acid in bioengineered renal tubules; format: cell-based; details: absence of human serum albumin; perfusion 10 min, 100 μM toxin
OAT1 [5] = target: T2, OAT1; assay: in vitro; details: pH 7.4, inhibition of indoxyl sulfate uptake
OAT1 [6] = target: T2, OAT1; assay: Uptake of indoxyl sulfate and kynurenic acid by ciPTEC-OAT1 (LC-MS/MS); details: 10 min, 37°C
[7] = read-out: ciPTEC-OAT1 IC50 (inhibition of fluorescein uptake), 1 μM fluorescein, 10 min, 37°C, flat monolayers, mean ± S.E.M.
[8] = read-out: ciPTEC-OAT3 IC50 (inhibition of fluorescein uptake), 1 μM fluorescein, 10 min, 37°C, flat monolayers, mean ± S.E.M.

IC50 (OAT3) [µM] | IC50 (OAT1 [2]) [µM] | Structure (SMILES) | Cm in ESRD patients [1] [µM] | other results
22 ± 9 |  | O=C(O)CNC(=O)c1ccccc1 [Hippuric acid] | 398 | 
148 ± 60 | 19 ± 2 | O=C(O)Cc1c[nH]c2ccccc12 [Indole-3-acetic acid] |  | 
 |  | O=S(=O)(O)Oc1c[nH]c2ccccc12 [Indoxyl sulfate] | 110 | TC50 (cell viability, MTT) [3]: 3000 ± 500 µM; inhibition of BCRP (in words) (BCRP): potent inhibitors; inhibition of MRP4 (in words) (MRP4): potent inhibitors
527 ± 218 | 492 ± 68 | O=C(O)[C@H]1O[C@@H](Oc2c[nH]c3ccccc23)[C@H](O)[C@@H](O)[C@@H]1O [Indoxyl-β-glucuronide] | 9 | 
219 ± 66 | 65 ± 8 | Nc1ccccc1C(=O)C[C@H](N)C(=O)O [L-Kynurenine] | 6 | 
 |  | Cc1ccc(O[C@@H]2O[C@H](C(=O)O)[C@@H](O)[C@H](O)[C@H]2O)cc1 [p-Cresylglucuronide] | 44 | IC50 (OAT1 [2]; [7]): 2650 ± 922 µM; IC50 (OAT3; [8]): 588 ± 81 µM
 |  | Cc1ccc(OS(=O)(=O)O)cc1 [p-Cresylsulfate] | 675 | IC50 (OAT1 [2]; [7]): 79 ± 14 µM; IC50 (OAT3; [8]): 112 ± 19 µM

Structure (SMILES) | IC50 (OAT3) [µM] | IC50 (OAT1 [2]) [µM] | Cm in ESRD patients [1] [µM] | other results
O=C(O)c1cc(=O)c2ccccc2[nH]1 [Kynurenic acid] | 6 ± 1 | 6 ± 1 |  | transepithelial clearance [4]: 72 ± 20 μl.min^−1.cm^−2; inhibition at 10 min, 100 μM (OAT1 [5]): 64 ± 13%; uptake by ciPTEC-OAT1 monolayers (OAT1 [6]; toxin 3 μM): 2.7 ± 0.3 pmol.min^−1.cm^−2; uptake by ciPTEC-OAT1 monolayers (OAT1 [6]; toxin 30 μM): 5.9 ± 0.5 pmol.min^−1.cm^−2
